In patent US11384381B2, “Reaction accelerating agent” (Kikkoman Corporation, priority 2016, dated 2022):

Key:
Format in all cases: biochemical
[1] = tested on: sarcosine oxidase (SOD-TE); assay: Sarcosine detection reaction completed with excess sarcosine oxidase (Example 10); settings: 0.04% (w/v) compound, 123 U/ml SOD-TE (excess), 32 μM sarcosine, pH 8.0, 37° C.; for ΔA9 min: change in A694-A751 9 minutes after mixing; for ΔA10 min: change in A694-A751 10 minutes after mixing, defined as ΔA100%
Procedure: In this Example, the amount of change in absorbance is determined when the detection reaction of the substrate sarcosine (N-methylglycine) was completed using an excess amount of sarcosine oxidase (SOD-TE), which is an oxidase.
A reagent for sarcosine measurement having the following composition was prepared, and the measurement of sarcosine using sarcosine oxidase was carried out using Bio Majesty JCA-BM 1650 (manufactured by JEOL Ltd.).
(§1) 32 μM sarcosine (manufactured by Wako Pure Chemical Industries, Ltd.)
(§2) 30 mM MOPS-NaOH buffer solution, pH 8.0
(§3) 0.2% (v/v) NP-10 (manufactured by HELM)
(§4) 10 U/ml peroxidase PEO-301 (Toyobo Co., Ltd.)
(§5) 0.023 mM 10-(carboxymethylaminocarbonyl)-3,7-bis(dimethylamino)phenothiazine sodium (DA-67, manufactured by Wako Pure Chemical Industries, Ltd.)
(§6) 0.04% (w/v) of the compound of Comparative Example 2, any one compound of the present invention, or compound-free (Comparative Example 1) ion-exchange water as shown in Table 1
(§7) 10 mM MOPS-NaOH buffer solution, pH 8.0
123 U/ml SOD-TE (manufactured by Kikkoman Biochemifa Company)
(§8) 8 μl of the sample was added to 96 μl of the first reagent-D, and the mixture was incubated at 37° C. for 5 minutes. Then, 24 μl of the second reagent-G was added thereto, and the quantitative reaction of hydrogen peroxide resulting from the oxidation of sarcosine was allowed to progress at 37° C. for 5 minutes. The absorbance (A694 and A751) of the reaction solution for light at wavelengths of 694 nm and 751 nm was measured over time for 10 minutes after the mixing of the sample with the first reagent-D to determine the value of subtraction of A751 from A694, i.e., the value A694/751. Subsequently, ΔA was calculated by subtracting, from A694/751, the value of (104/128) times A % s 4.8 minutes after the mixing of the sample with the first reagent-D. Incidentally, 4.8 minutes after the mixing of the sample with the first reagent-D represents the time immediately before the addition of the second reagent-G. ΔA 9 minutes and 10 minutes after the mixing of the diluted sample with the first reagent-D (ΔA9min and ΔA10min) are shown in Table 7.
In other words, it can be recognized that the quantitative reaction of sarcosine, i.e., the quantitative reaction of hydrogen peroxide resulting from the oxidation of sarcosine, was completed in 10 minutes after the mixing of the diluted sample with the first reagent-D. Accordingly, in Examples 10 and 11, ΔA10min in each Comparative Example or the present invention was defined as ΔA when 100% of the quantitative reaction of sarcosine progressed under each condition (ΔA100%).

[2] = tested on: sarcosine oxidase (SOD-TE); assay: Acceleration of sarcosine detection reaction with small amount of sarcosine oxidase (Example 11); settings: 0.04% (w/v) compound, 12.3 U/ml SOD-TE; for effect of accelerating sarcosine detection reaction: versus not added; for Degree of progression of reaction (%) after 7.5 minutes / Degree of progression of reaction (%) after 10 minutes: sarcosine detection reaction, ΔA/ΔA100%; for Degree of progression of reaction (%) after 7.5 minutes: 2.5 minutes after addition of second reagent, not added: 60; for Degree of progression of reaction (%) after 10 minutes: 5 minutes after addition of second reagent, not added: 82
Procedure: Next, in this Example, the degree of acceleration of sarcosine detection reaction by the compound of the present invention was determined using a small amount of sarcosine oxidase.
A reagent for sarcosine measurement having the following composition was prepared, and the measurement of sarcosine was carried out using Bio Majesty JCA-BM1650 (manufactured by JEOL Ltd.).
as §1, §2, §3, §4
0.023 mM 10-(carboxymethylaminocarbonyl)-3,7-bis(dimethylamino)phenothiazine sodium
(DA-67, manufactured by Wako Pure Chemical Industries, Ltd.)
as §6, §7
12.3 U/ml SOD-TE (manufactured by Kikkoman Biochemifa Company)
as §8, with “[…]” for “96 μl”, “second reagent-H” for “second reagent-G”, “times A694/751” for “times A % s”, “Incidentally, 5” for “Incidentally, 4.8”, “second reagent-H.” for “second reagent-G. ΔA 9 minutes and 10 minutes after the mixing of the diluted sample with the first reagent-D (ΔA9min and ΔA10min) are shown in Table 7.”
Next, ΔA calculated in this Example was divided by ΔA100% defined in Example 10 to calculate the degree of progression of sarcosine detection reaction. The degree of progression of sarcosine detection reaction 7.5 and 10 minutes after the mixing of the sample with the first reagent-D (in other words, 2.5 and 5 minutes after the addition of the second reagent-H) is shown in Table 8.

[3] = tested on: cholesterol oxidase (CHO-CE); assay: Acceleration of cholesterol detection reaction with small amount of cholesterol oxidase (Example 13); settings: 0.04% (w/v) compound, 2.31 U/ml CHO-CE; for effect of accelerating cholesterol detection reaction: versus not added; for Degree of progression of reaction (%) after 7.5 minutes / Degree of progression of reaction (%) after 10 minutes: cholesterol detection reaction, ΔA/ΔA100%; for Degree of progression of reaction (%) after 7.5 minutes: 2.5 minutes after addition of second reagent, not added: 65; for Degree of progression of reaction (%) after 10 minutes: 5 minutes after addition of second reagent, not added: 88
Procedure: Next, in this Example, the degree of acceleration of cholesterol detection reaction by the compound of the present invention was determined using a small amount of cholesterol oxidase.
A reagent for cholesterol measurement having the following composition was prepared, and the measurement of cholesterol was carried out using Bio Majesty JCA-BM […] (manufactured by JEOL Ltd.).
32 μM cholesterol (manufactured by Wako Pure Chemical Industries, Ltd.)
5.0% (v/v) Triton X-100 (manufactured by Wako Pure Chemical Industries, Ltd.)
4.0% (w/v) sodium cholate (manufactured by Wako Pure Chemical Industries, Ltd.)
30 mM MOPS-NaOH buffer solution, pH 7.0
as §4, §5, §6
10 mM MOPS-NaOH buffer solution, pH 7.0
2.31 U/ml CHO-CE (manufactured by Kikkoman Biochemifa Company)
8 μl of the sample was added to 96 μl of the first reagent-E, and the mixture was incubated at 37° C. for 5 minutes. Then, 24 μl of the second reagent-J was added thereto, and the quantitative reaction of hydrogen peroxide resulting from the oxidation of cholesterol was allowed to progress at 37° C. for 5 minutes. The absorbance (A694 and A751) of the reaction solution for light at wavelengths of 694 nm and 751 nm was measured over time for 10 minutes after the mixing of the sample with the first reagent-E to determine the value of subtraction of A751 from A694, i.e., the value A694/751. Subsequently, ΔA was calculated by subtracting, from A694/751, the value of (104/128) times A694/751 4.8 minutes after the mixing of the sample with the first reagent-E. Incidentally, 5 minutes after the mixing of the sample with the first reagent-E represents the time immediately before the addition of the second reagent-J.
Next, ΔA calculated in this Example was divided by ΔA100% defined in Example 12 to calculate the degree of progression of cholesterol detection reaction. The degree of progression of cholesterol detection reaction 7.5 and 10 minutes after the mixing of the sample with the first reagent-E (in other words, 2.5 and 5 minutes after the addition of the second reagent-J) is shown in Table 10.

Molecule | ΔA9 min [1] | ΔA10 min [1] | effect of accelerating sarcosine detection reaction [2] | Degree of progression of reaction (%) after 7.5 minutes [2] | Degree of progression of reaction (%) after 10 minutes [2] | effect of accelerating cholesterol detection reaction [3] | Degree of progression of reaction (%) after 7.5 minutes [3] | Degree of progression of reaction (%) after 10 minutes [3]
Xylene Fast Yellow 2G | 0.158 | 0.158 | effect of accelerating sarcosine detection reaction | 64% | 86% | – | – | –
O=S(=O)([O-])c1cccc(N=Nc2ccc(Nc3ccccc3)cc2)c1.[Na+] [Acid Yellow 36] | – | – | – | – | – | effect of accelerating cholesterol detection reaction | 73% | 92%
O=C([O-])c1cc(N=Nc2ccc([N+](=O)[O-])cc2)ccc1O.[Na+] [Mordant Orange 1] | 0.327 | 0.328 | effect of accelerating sarcosine detection reaction | 67% | 88% | effect of accelerating cholesterol detection reaction | 74% | 94%
O=C(O)c1cc(N=Nc2ccc3cc(S(=O)(=O)O)ccc3c2)ccc1O.[Na] [Chrome Yellow] | 0.186 | 0.186 | effect of accelerating sarcosine detection reaction | 65% | 87% | effect of accelerating cholesterol detection reaction | 67% | 91%
O=C([O-])c1cc(N=Nc2cccc([N+](=O)[O-])c2)ccc1O.[Na+] [Alizarin Yellow GG] | 0.197 | 0.197 | effect of accelerating sarcosine detection reaction | 64% | 86% | effect of accelerating cholesterol detection reaction | 73% | 93%
COc1cc(N=Nc2cccc(S(=O)(=O)[O-])c2)ccc1NC(=O)Nc1ccc(N=Nc2ccc(O)c(C(=O)[O-])c2)cc1.[Na+].[Na+] [Direct Yellow 44] | 0.315 | 0.315 | effect of accelerating sarcosine detection reaction | 68% | 89% | – | – | –
Cc1nn(-c2cc(S(=O)(=O)[O-])ccc2Cl)c(O)c1N=Nc1ccccc1.[Na+] [Acid Yellow 34] | – | – | – | – | – | effect of accelerating cholesterol detection reaction | 72% | 92%
Acid Red 151 | 0.212 | 0.212 | effect of accelerating sarcosine detection reaction | 68% | 89% | effect of accelerating cholesterol detection reaction | 74% | 94%
COc1cc(N=Nc2ccc(N)cc2)c(C)cc1N [Disperse Diazo Black 3BF] | 0.156 | 0.156 | effect of accelerating sarcosine detection reaction | 63% | 84% | effect of accelerating cholesterol detection reaction | 66% | 97%
